How the values were obtained:
[1] = system: human A2058 melanoma xenografts; assay: Biodistribution in nude mice xenografted with human melanotic melanoma; assay type: in vivo, Balb/c nu/nu mice; conditions: for RATIO Tumor/Blood / RATIO Tumor/Muscle / Biodistribution Blood / Biodistribution Bone / Biodistribution Brain / Biodistribution Heart / Biodistribution Intestine / Biodistribution Kidney / Biodistribution Liver / Biodistribution Lung / Biodistribution Muscle / Biodistribution Spleen / Biodistribution Stomach / Biodistribution Thyroid / Biodistribution Tumor: nude mice, human melanotic melanoma, mean (std. dev.); for Biodistribution Blood / Biodistribution Bone / Biodistribution Brain / Biodistribution Heart / Biodistribution Intestine / Biodistribution Kidney / Biodistribution Liver / Biodistribution Lung / Biodistribution Muscle / Biodistribution Spleen / Biodistribution Stomach / Biodistribution Thyroid / Biodistribution Tumor: n = 6
Method: A2058 tumor cells, derived from a brain metastasis of human malignant melanoma (Todaro et al. 1980 Proc. Natl. Acad. Sci. USA 77:5258) were obtained from the National Institutes of Health. […] Suspension of 5×10^6 cells (viability greater than 95%) in 0.2 mL of medium were inoculated subcutaneously in female Balb/c nu/nu mice. After about two weeks, solid tumors of about 1 cm in diameter appeared in approximately 85% of all inoculated mice. […] Balb/c nu/nu mice (17-22 g) were injected intravenously with 0.2 ml of a saline solution containing [^125I]PAB (5-6 μCi). […] The values obtained were normalized to a mouse weighing 20 g. The differences between [^125I]PAB and [^125I]DAB were examined by Student's unpaired t tests.

[2] = system: human squamous cell carcinoma xenografts; assay: Biodistribution in nude mice xenografted with human squamous cell carcinoma; assay type: in vivo, Balb/c nu/nu mice; conditions: for Biodistribution Blood / Biodistribution Bone / Biodistribution Brain / Biodistribution Heart / Biodistribution Intestine / Biodistribution Kidney / Biodistribution Liver / Biodistribution Lung / Biodistribution Spleen / Biodistribution Stomach / Biodistribution Thyroid / Biodistribution Tumor: nude mice, human squamous cell carcinoma, mean (std. dev.), n = 6
Method: Non-small cell lung carcinoma cell lines NCI-157, NCI-838 and NCI-1299 were obtained from the National Cancer Institute. The NCI-157 cell line is a squamous carcinoma cell line, while NCI-838 is an adenocarcinoma cell line and NCI-1299 is a large cell lung carcinoma cell. […] Suspension of 5×10^6 cells (viability greater than 95%) in 0.2 mL of medium were inoculated subcutaneously in female Balb/c nu/nu mice. After about two weeks, solid tumors of about 1 cm in diameter appeared in approximately 85% of all inoculated mice. […] Balb/c nu/nu mice (17-22 g) were injected intravenously with 0.2 ml of a saline solution containing [^125I]PAB (5-6 μCi). […] The values obtained were normalized to a mouse weighing 20 g.

## CCN(CC)CCNC(=O)c1ccc([125I])cc1 [[^125I]DAB, ^125I-N-(diethylaminoethyl)4-iodobenzamide, reference compound]
[1]; 1 Hour
  RATIO Tumor/Blood: 5.68 (2.75)
  RATIO Tumor/Muscle: 5.33 (1.65)
  Biodistribution Blood: 1.03 (.318) % ID/g
  Biodistribution Bone: 1.04 (.476) % ID/g
  Biodistribution Brain: 1.04 (.0855) % ID/g
  Biodistribution Heart: 1.67 (.210) % ID/g
  Biodistribution Intestine: 5.04 (1.47) % ID/g
  Biodistribution Kidney: 4.63 (.905) % ID/g
  Biodistribution Liver: 12.7 (1.69) % ID/g
  Biodistribution Lung: 6.32 (1.55) % ID/g
  Biodistribution Muscle: 0.988 (.125) % ID/g
  Biodistribution Spleen: 3.46 (.206) % ID/g
  Biodistribution Stomach: 3.84 (1.98) % ID/g
  Biodistribution Thyroid: 5.68 (1.02) % ID/g
  Biodistribution Tumor: 5.18 (1.31) % ID/g
[1]; 6 Hour
  RATIO Tumor/Blood: 28.1 (5.84)
  RATIO Tumor/Muscle: 33.3 (14.0)
  Biodistribution Blood: 1.03 (0.197) % ID/g
  Biodistribution Bone: 0.100 (.0297) % ID/g
  Biodistribution Brain: 0.132 (.0204) % ID/g
  Biodistribution Heart: 0.150 (.0329) % ID/g
  Biodistribution Intestine: 0.423 (.0963) % ID/g
  Biodistribution Kidney: 0.435 (.0909) % ID/g
  Biodistribution Liver: 3.74 (.427) % ID/g
  Biodistribution Lung: 0.458 (.0993) % ID/g
  Biodistribution Muscle: 0.0967 (.0356) % ID/g
  Biodistribution Spleen: 0.260 (.0990) % ID/g
  Biodistribution Stomach: 0.475 (.164) % ID/g
  Biodistribution Thyroid: 0.400 (.124) % ID/g
  Biodistribution Tumor: 2.83 (.388) % ID/g
[1]; 24 Hour
  RATIO Tumor/Blood: 15.5 (4.69)
  RATIO Tumor/Muscle: 39.7 (9.61)
  Biodistribution Blood: 0.0350 (0.0084) % ID/g
  Biodistribution Bone: 0.0133 (.0052) % ID/g
  Biodistribution Brain: 0.0033 (.0052) % ID/g
  Biodistribution Heart: 0.0233 (.0175) % ID/g
  Biodistribution Intestine: 0.123 (.0717) % ID/g
  Biodistribution Kidney: 0.065 (.0197) % ID/g
  Biodistribution Liver: 1.12 (.232) % ID/g
  Biodistribution Lung: 0.0633 (.0273) % ID/g
  Biodistribution Muscle: 0.0150 (.0084) % ID/g
  Biodistribution Spleen: 0.0350 (.023) % ID/g
  Biodistribution Stomach: 0.445 (.386) % ID/g
  Biodistribution Tumor: 0.553 (.241) % ID/g
[1]; 24 hrs., melanoma xenograft
  amount in tumors relative to livers: about half
[2]; 1 hr.
  Biodistribution Blood: 1.35 (0.42) % ID/g
  Biodistribution Bone: 1.85 (0.22) % ID/g
  Biodistribution Brain: 1.57 (0.05) % ID/g
  Biodistribution Heart: 2.21 (0.16) % ID/g
  Biodistribution Intestine: 5.64 (0.58) % ID/g
  Biodistribution Kidney: 7.64 (0.35) % ID/g
  Biodistribution Liver: 13.77 (0.72) % ID/g
  Biodistribution Lung: 6.38 (0.89) % ID/g
  Biodistribution Spleen: 3.58 (0.28) % ID/g
  Biodistribution Stomach: 5.41 (0.53) % ID/g
  Biodistribution Thyroid: 8.22 (0.72) % ID/g
  Biodistribution Tumor: 5.13 (0.74) % ID/g
[2]; 6 hr.
  Biodistribution Blood: 0.301 (0.04) % ID/g
  Biodistribution Bone: 0.21 (0.01) % ID/g
  Biodistribution Brain: 0.23 (0.05) % ID/g
  Biodistribution Heart: 0.38 (0.11) % ID/g
  Biodistribution Intestine: 1.34 (0.27) % ID/g
  Biodistribution Kidney: 1.07 (0.16) % ID/g
  Biodistribution Liver: 5.84 (0.51) % ID/g
  Biodistribution Lung: 1.07 (0.14) % ID/g
  Biodistribution Spleen: 0.51 (0.08) % ID/g
  Biodistribution Stomach: 2.7 (0.98) % ID/g
  Biodistribution Thyroid: 1.48 (0.55) % ID/g
  Biodistribution Tumor: 2.17 (0.09) % ID/g
[2]; 24 hr.
  Biodistribution Blood: 0.027 (0.00) % ID/g
  Biodistribution Brain: 0.00 (0.00) % ID/g
  Biodistribution Heart: 0.00 (0.00) % ID/g
  Biodistribution Intestine: 0.05 (0.01) % ID/g
  Biodistribution Kidney: 0.05 (0.00) % ID/g
  Biodistribution Liver: 1.25 (0.10) % ID/g
  Biodistribution Lung: 0.03 (0.00) % ID/g
  Biodistribution Spleen: 0.01 (0.00) % ID/g
  Biodistribution Stomach: 0.15 (0.02) % ID/g
  Biodistribution Thyroid: 0.03 (0.01) % ID/g
  Biodistribution Tumor: 0.18 (0.02) % ID/g
[2]; 24 hrs., squamous cell carcinoma xenograft
  amount in livers relative to tumors: about six-fold

## O=C(NCCN1CCCCC1)c1ccc([125I])cc1 [[^125I]PAB, ^125I(2-piperidinylaminoethyl)4-iodobenzamide]
[1]; 1 Hour
  RATIO Tumor/Blood: 4.16 (1.09)
  RATIO Tumor/Muscle: 7.16 (1.50)
  Biodistribution Blood: 0.967 (.168) % ID/g
  Biodistribution Bone: 0.750 (.0663) % ID/g
  Biodistribution Brain: 0.895 (.0887) % ID/g
  Biodistribution Heart: 1.14 (.207) % ID/g
  Biodistribution Intestine: 10.64 (.541) % ID/g
  Biodistribution Kidney: 3.82 (.561) % ID/g
  Biodistribution Liver: 6.36 (.770) % ID/g
  Biodistribution Lung: 2.34 (.277) % ID/g
  Biodistribution Muscle: 0.552 (.0711) % ID/g
  Biodistribution Spleen: 3.11 (.789) % ID/g
  Biodistribution Stomach: 3.23 (.697) % ID/g
  Biodistribution Thyroid: 4.23 (.594) % ID/g
  Biodistribution Tumor: 3.87 (.470) % ID/g
[1]; 6 Hour
  RATIO Tumor/Blood: 14.9 (5.07)
  RATIO Tumor/Muscle: 32.5 (12.0)
  Biodistribution Blood: 0.208 (.0542) % ID/g
  Biodistribution Bone: 0.115 (.0236) % ID/g
  Biodistribution Brain: 0.122 (.0331) % ID/g
  Biodistribution Heart: 0.167 (.0372) % ID/g
  Biodistribution Intestine: 2.46 (1.18) % ID/g
  Biodistribution Kidney: 0.483 (.131) % ID/g
  Biodistribution Liver: 1.16 (.212) % ID/g
  Biodistribution Lung: 0.387 (.0568) % ID/g
  Biodistribution Muscle: 0.0983 (.0306) % ID/g
  Biodistribution Spleen: 0.330 (.105) % ID/g
  Biodistribution Stomach: 0.757 (.298) % ID/g
  Biodistribution Thyroid: 0.583 (.203) % ID/g
  Biodistribution Tumor: 2.91 (.463) % ID/g
[1]; 24 Hour
  RATIO Tumor/Blood: 17.8 (6.10)
  RATIO Tumor/Muscle: 94.5 (32.5)
  Biodistribution Blood: 0.0617 (.018) % ID/g
  Biodistribution Bone: 0.0133 (.0052) % ID/g
  Biodistribution Brain: 0.0067 (.0052) % ID/g
  Biodistribution Heart: 0.0283 (.0075) % ID/g
  Biodistribution Intestine: 0.132 (.0852) % ID/g
  Biodistribution Kidney: 0.0850 (.016) % ID/g
  Biodistribution Liver: 0.263 (.0216) % ID/g
  Biodistribution Lung: 0.0717 (.0075) % ID/g
  Biodistribution Muscle: 0.0117 (.0041) % ID/g
  Biodistribution Spleen: 0.0383 (.015) % ID/g
  Biodistribution Stomach: 0.130 (0.881) % ID/g
  Biodistribution Thyroid: 0.100 (.143) % ID/g
  Biodistribution Tumor: 1.028 (.239) % ID/g
[1]; 24 hrs., melanoma xenograft
  amount in tumors relative to livers: about four-fold
  tumor concentration relative to that of [125I]DAB: twice
[2]; 1 hr.
  Biodistribution Blood: 1.99 (0.35) % ID/g
  Biodistribution Bone: 2.03 (0.28) % ID/g
  Biodistribution Brain: 1.80 (0.17) % ID/g
  Biodistribution Heart: 2.25 (0.07) % ID/g
  Biodistribution Intestine: 12.63 (0.43) % ID/g
  Biodistribution Kidney: 6.56 (0.04) % ID/g
  Biodistribution Liver: 10.48 (1.26) % ID/g
  Biodistribution Lung: 4.91 (0.25) % ID/g
  Biodistribution Spleen: 3.97 (0.18) % ID/g
  Biodistribution Stomach: 5.57 (1.31) % ID/g
  Biodistribution Thyroid: 7.84 (0.91) % ID/g
  Biodistribution Tumor: 4.27 (0.40) % ID/g
[2]; 6 hr.
  Biodistribution Blood: 0.51 (0.03) % ID/g
  Biodistribution Bone: 0.56 (0.18) % ID/g
  Biodistribution Brain: 0.29 (0.01) % ID/g
  Biodistribution Heart: 0.49 (0.03) % ID/g
  Biodistribution Intestine: 11.41 (0.52) % ID/g
  Biodistribution Kidney: 1.61 (0.28) % ID/g
  Biodistribution Liver: 3.47 (0.23) % ID/g
  Biodistribution Lung: 1.10 (0.03) % ID/g
  Biodistribution Spleen: 0.86 (0.20) % ID/g
  Biodistribution Stomach: 3.46 (0.18) % ID/g
  Biodistribution Thyroid: 2.80 (0.49) % ID/g
  Biodistribution Tumor: 3.27 (0.33) % ID/g
[2]; 24 hr.
  Biodistribution Blood: 0.15 (0.07) % ID/g
  Biodistribution Bone: 0.02 (0.00) % ID/g
  Biodistribution Brain: 0.01 (0.00) % ID/g
  Biodistribution Heart: 0.03 (0.00) % ID/g
  Biodistribution Intestine: 0.38 (0.09) % ID/g
  Biodistribution Kidney: 0.13 (0.00) % ID/g
  Biodistribution Liver: 0.39 (0.02) % ID/g
  Biodistribution Lung: 0.08 (0.00) % ID/g
  Biodistribution Spleen: 0.05 (0.00) % ID/g
  Biodistribution Stomach: 0.20 (0.03) % ID/g
  Biodistribution Thyroid: 0.09 (0.01) % ID/g
  Biodistribution Tumor: 0.66 (0.12) % ID/g
[2]; 24 hrs. post-injection, squamous cell carcinoma xenograft
  tumor concentration relative to that of [125I]DAB: more than three-fold
